Key:
CqsSPa^S168C = format: cell-based, Photobacterium angustum; details: Fig. S2
CqsSPa = experiment: V. harveyi bioluminescent reporter strain expressing cqsSPa; format: cell-based, Photobacterium angustum; details: for EC50: dose-dependent bioluminescence response
CqsSVh = biological target: T1, CqsSVh (Vibrio campbellii, UniProt A7N6S2); experiment: V. harveyi bioluminescent reporter strain expressing cqsSVh; format: cell-based, Vibrio harveyi
T1 sequence (A7N6S2 1-681): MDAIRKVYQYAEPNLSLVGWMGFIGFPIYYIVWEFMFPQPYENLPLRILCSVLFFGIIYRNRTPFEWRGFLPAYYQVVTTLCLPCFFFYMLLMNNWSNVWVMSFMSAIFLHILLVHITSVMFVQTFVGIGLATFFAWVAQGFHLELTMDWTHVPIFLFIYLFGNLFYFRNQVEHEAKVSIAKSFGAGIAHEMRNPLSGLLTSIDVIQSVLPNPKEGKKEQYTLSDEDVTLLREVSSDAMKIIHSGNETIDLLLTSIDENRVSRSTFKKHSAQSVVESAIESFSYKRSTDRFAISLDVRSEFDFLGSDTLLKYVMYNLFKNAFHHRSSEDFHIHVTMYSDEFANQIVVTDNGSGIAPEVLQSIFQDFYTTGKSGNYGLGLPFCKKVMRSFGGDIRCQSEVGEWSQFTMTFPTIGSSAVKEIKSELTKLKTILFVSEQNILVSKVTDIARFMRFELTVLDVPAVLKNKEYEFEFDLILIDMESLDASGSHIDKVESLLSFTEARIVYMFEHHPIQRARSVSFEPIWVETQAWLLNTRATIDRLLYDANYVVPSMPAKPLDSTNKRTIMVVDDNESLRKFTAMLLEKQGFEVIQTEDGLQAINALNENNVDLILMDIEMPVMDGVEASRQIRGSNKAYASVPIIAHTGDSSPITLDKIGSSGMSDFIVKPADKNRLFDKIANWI

CqsSVc = CqsSVc (Vibrio cholerae serotype O1, UniProt Q9KM66); experiment: V. harveyi bioluminescent reporter strain expressing cqsSVc; format: cell-based
Sequence of CqsSVc (Q9KM66 whole entry, looked up): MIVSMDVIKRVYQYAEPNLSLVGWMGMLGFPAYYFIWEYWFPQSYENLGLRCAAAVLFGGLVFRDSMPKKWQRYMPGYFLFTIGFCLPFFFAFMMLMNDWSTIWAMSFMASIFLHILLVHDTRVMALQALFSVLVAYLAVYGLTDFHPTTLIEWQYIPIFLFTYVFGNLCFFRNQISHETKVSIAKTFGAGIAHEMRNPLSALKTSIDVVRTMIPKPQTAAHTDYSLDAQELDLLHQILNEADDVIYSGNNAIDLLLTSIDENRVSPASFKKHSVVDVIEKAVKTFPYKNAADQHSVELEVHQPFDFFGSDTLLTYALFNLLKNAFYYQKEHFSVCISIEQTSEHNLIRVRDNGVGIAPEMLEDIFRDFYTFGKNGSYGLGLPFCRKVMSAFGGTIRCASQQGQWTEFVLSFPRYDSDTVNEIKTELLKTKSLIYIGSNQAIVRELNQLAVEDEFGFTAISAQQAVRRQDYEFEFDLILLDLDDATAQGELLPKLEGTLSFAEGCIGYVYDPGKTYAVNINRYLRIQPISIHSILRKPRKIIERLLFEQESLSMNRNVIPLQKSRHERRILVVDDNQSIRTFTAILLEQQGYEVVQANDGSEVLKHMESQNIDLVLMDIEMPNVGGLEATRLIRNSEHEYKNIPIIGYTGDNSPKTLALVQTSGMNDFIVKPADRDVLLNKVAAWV

Row | SMILES | detection of CAI-1 molecules (CqsSPa^S168C) | EC50 (CqsSPa; reporter expressing CqsSPa) [nM] | increase in light production (CqsSPa; reporter carrying cqsSPa, synthetic molecule at 5 μM) | response (light production) in dose-response (CqsSPa; reporter expressing CqsSPa) | EC50 (CqsSVh) [nM] | light production (CqsSVh; reporter carrying cqsSVh, synthetic molecule at 5 μM) | EC50 (CqsSVc) [nM]
1 | CCCCCCCCCC(=O)[C@@H](O)CC [C10-CAI-1, (S)-3-hydroxytridecan-4-one] | retained the ability to detect | 12 | ~ 1000 fold | – | – | – | –
2 | C/C=C(\N)C(=O)CCCCCCC [Ea-C8-CAI-1, (Z)-3-aminoundec-2-en-4-one] | – | – | – | modest response | 100 | produced light | –
3 | C/C=C(\N)C(=O)CCCCCCCCC [Ea-C10-CAI-1] | retained the ability to detect | 4 | – | – | – | – | 150

— article PMC3959898 (Molecular microbiology, 2014)
